Data as given in patent US20260083865A1, “PROSTATE SPECIFIC MEMBRANE ANTIGEN (PSMA) LIGANDS AND USE THEREOF” (priority 2022, published 2026).
Where two headings read alike, the source gives them in different places. Numbered stars: 1 amine (or outer) side, 2 acyl side, 3 side chain; on linkers, the order of the positions; unused ones are H or OH. Bridge positions count the residues as written; N and C are the ends. Square brackets hold non-standard residues; d marks the D form. Peptide text beside a SMILES is read from it. * marks the point of attachment. TtdsdLys(DOTA)NH2 = NC(=O)[C@@H](CCCCNC(=O)CN1CCN(CC(=O)O)CCN(CC(=O)O)CCN(CC(=O)O)CC1)NC(=O)CCC(=O)NCCCOCCOCCOCCCN*; Acetyl(1-DOTA-4-piperidyl) = O=C(O)CN1CCN(CC(=O)O)CCN(CC(=O)N2CCC(CC(=O)*)CC2)CCN(CC(=O)O)CC1; DOTA = O=C(O)CN1CCN(CC(=O)O)CCN(CC(=O)*)CCN(CC(=O)O)CC1; Phe(4-Cl) = N[C@@H](Cc1ccc(Cl)cc1)C(=O)O; 3Pal = N[C@@H](Cc1cccnc1)C(=O)O; X1 = O=C(CC1CCN([*:1])CC1)[*:2]; Cit = NC(=O)NCCC[C@H](N)C(=O)O; Tle = CC(C)(C)[C@H](N)C(=O)O; Nle = CCCC[C@H](N)C(=O)O; Aib = CC(C)(N)C(=O)O; βAla = NCCC(=O)O

Assays:
[1] = molecular target: T1, Fc-fusion protein of human PSMA (hPSMA-Fc) (Homo sapiens, UniProt Q04609); assay: Surface plasmon resonance assay (Biacore T200, single cycle kinetic); assay type: binding; settings: read-out: pKD CAT (converted)
T1 construct: purchased Acro Biosystems PSA-H5264
Procedure, shortened: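 hPSMA-Fc was captured (~1000 RU) on an Fc-binding-peptide CM5 chip, and compounds were run in single cycle kinetic mode at 25° C in HBST with 0.1% DMSO. Double-blank-corrected sensorgrams were fitted to a 1:1 Langmuir model to give KD, reported as pKD.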

[2] = molecular target: T2, PSMA-expressing C4-2 cells (Homo sapiens, UniProt Q04609); assay: FACS binding assay (competition with 50 nM PSM-0183); settings: read-out: pIC50 [C4-2] CAT (converted)
T2 construct: PSMA-expressing C4-2 cells (ATCC, Cat. No. CRL-3314) were cultured in RPMI-1640; host or cells: C4-2 cells
Procedure, shortened: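 C4-2 cells were incubated 1 h at 4 °C with 50 nM AF488-labelled peptide PSM-0183 plus increasing test compound concentrations, then washed twice in ice-cold buffer. Median fluorescence in the AF488 channel was read by flow cytometry. IC50/pIC50 was derived by 4PL fitting of MFI versus concentration.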

[3] = PSMA SPR assay, hPSMA-Fc, 25° C., pKD category
[4] = FACS binding, PSMA-expressing C4-2 cells, pIC50 category
[5] = pKD category for PSMA SPR activity assay, hPSMA-Fc, 25° C.
[6] = pIC50 category of FACS binding, C4-2 cells
[7] = SPR, hPSMA-Fc, single cycle kinetic, 25° C., category
[8] = FACS binding, C4-2 cells, competition with 50 nM PSM-0183, category

T2 sequence (Q04609 whole entry): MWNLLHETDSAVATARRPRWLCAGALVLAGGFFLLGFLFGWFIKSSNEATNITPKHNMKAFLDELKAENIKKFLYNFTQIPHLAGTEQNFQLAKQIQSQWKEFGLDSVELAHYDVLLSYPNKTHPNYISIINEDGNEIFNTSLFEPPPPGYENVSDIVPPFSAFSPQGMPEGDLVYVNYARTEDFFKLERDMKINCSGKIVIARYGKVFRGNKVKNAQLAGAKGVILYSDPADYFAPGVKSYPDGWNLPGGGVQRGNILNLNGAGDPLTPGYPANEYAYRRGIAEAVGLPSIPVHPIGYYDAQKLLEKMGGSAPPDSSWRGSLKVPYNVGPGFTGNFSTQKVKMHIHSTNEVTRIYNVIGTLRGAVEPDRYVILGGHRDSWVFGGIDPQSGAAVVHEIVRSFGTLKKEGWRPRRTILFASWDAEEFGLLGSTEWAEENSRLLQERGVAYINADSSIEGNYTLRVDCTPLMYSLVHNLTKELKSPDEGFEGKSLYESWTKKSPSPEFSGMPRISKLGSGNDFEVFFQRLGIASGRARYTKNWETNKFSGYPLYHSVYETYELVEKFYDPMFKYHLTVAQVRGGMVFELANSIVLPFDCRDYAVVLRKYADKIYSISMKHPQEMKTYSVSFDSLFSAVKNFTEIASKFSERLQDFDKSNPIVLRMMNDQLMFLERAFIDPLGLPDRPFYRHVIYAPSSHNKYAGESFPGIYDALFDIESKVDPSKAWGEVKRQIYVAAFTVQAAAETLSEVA
T1 sequence (Q04609 44-750 limits assumed): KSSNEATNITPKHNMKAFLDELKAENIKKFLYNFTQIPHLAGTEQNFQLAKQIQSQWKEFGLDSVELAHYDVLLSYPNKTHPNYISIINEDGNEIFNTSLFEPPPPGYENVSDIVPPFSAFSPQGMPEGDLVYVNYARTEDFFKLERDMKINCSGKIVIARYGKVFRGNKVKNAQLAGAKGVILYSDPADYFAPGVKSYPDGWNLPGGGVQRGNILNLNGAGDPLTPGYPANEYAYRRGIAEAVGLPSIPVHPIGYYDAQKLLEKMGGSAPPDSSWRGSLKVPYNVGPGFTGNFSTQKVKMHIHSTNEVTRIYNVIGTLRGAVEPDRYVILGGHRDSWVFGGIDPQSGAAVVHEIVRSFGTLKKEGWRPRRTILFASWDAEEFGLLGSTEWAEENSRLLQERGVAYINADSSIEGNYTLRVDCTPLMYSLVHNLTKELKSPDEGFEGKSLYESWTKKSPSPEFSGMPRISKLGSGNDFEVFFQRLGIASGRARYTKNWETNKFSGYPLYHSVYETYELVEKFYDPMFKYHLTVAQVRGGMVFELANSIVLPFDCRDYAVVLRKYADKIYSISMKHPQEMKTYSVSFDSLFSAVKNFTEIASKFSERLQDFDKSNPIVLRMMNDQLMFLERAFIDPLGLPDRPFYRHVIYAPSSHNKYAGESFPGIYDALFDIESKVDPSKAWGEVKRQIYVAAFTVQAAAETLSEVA

SMILES	Kd [1, 3]	IC50 [2, 4]	further results
CC(=O)N[C@H](C(=O)NC(C)(C)C(=O)N[C@@H](Cc1ccccc1)C(=O)N[C@H]1CSSC[C@@H](C(=O)N[C@H](C(=O)N[C@H](C(N)=O)[C@@H](C)O)C(C)(C)C)NC(=O)[C@H](CO)NC(=O)C(C)(C)NC(=O)[C@H](CCCNC(=N)N)NC(=O)[C@H](CCCCN)NC1=O)[C@@H](C)O [PSM-0279, Ac-Thr-Aib-Phe-[Cys-Lys-Arg-Aib-Ser-Cys]-Tle-Thr-NH2] (Ac-T[Aib]FCKR[Aib]SC[Tle]T-NH2; disulfide 4-9)	< 12.6 nM	< 200 nM	
CC(=O)N[C@H](C(=O)N[C@@H](C)C(=O)N[C@@H](Cc1ccccc1)C(=O)N[C@H]1CSSC[C@@H](C(=O)N[C@@H](CC(C)C)C(=O)N[C@H](C(=O)N[C@@H](CC(=O)O)C(=O)NCCCOCCOCCOCCCNC(=O)CCC(=O)N[C@H](CCCCNC(=O)CN2CCN(CC(=O)O)CCN(CC(=O)O)CCN(CC(=O)O)CC2)C(N)=O)[C@@H](C)O)NC(=O)[C@H](CC(N)=O)NC(=O)[C@H](C)NC(=O)[C@H](CCCNC(=N)N)NC(=O)[C@H](CCCCN)NC1=O)[C@@H](C)O [PSM-0330, Ac-Thr-Ala-Phe-[Cys-Lys-Arg-Ala-Asn-Cys]-Leu-Thr-Asp-Ttds-lys(DOTA)-NH2] (Ac-TAFCKRANCLTD-{TtdsdLys(DOTA)NH2}; disulfide 4-9)	12.6 to 126 nM	200 to 1260 nM	
CC(=O)N[C@H](C(=O)NC(C)(C)C(=O)N[C@@H](Cc1ccccc1)C(=O)N[C@H]1CSSC[C@@H](C(=O)N[C@H](C(=O)N[C@@H](CCC(N)=O)C(N)=O)C(C)(C)C)NC(=O)[C@H](CC(N)=O)NC(=O)C(C)(C)NC(=O)[C@H](CCCNC(=N)N)NC(=O)[C@H](CCCCN)NC1=O)[C@@H](C)O [PSM-0540, Ac-Thr-Aib-Phe-[Cys-Lys-Arg-Aib-Asn-Cys]-Tle-Gln-NH2] (Ac-T[Aib]FCKR[Aib]NC[Tle]Q-NH2; disulfide 4-9)			Kd [1, 5]: < 12.6 nM; IC50 [2, 6]: < 200 nM
CCCC[C@H](NC(=O)[C@@H]1CSSC[C@H](NC(=O)[C@H](Cc2ccccc2)NC(=O)[C@H](C)NC(=O)[C@@H](NC(C)=O)[C@@H](C)O)C(=O)N[C@@H](CCCCN)C(=O)N[C@@H](CCCNC(=N)N)C(=O)NC(C)(C)C(=O)N[C@@H](CC(N)=O)C(=O)N1)C(=O)N[C@H](C(=O)N[C@@H](CC(=O)O)C(N)=O)[C@@H](C)O [PSM-0578, Ac-Thr-Ala-Phe-[Cys-Lys-Arg-Aib-Asn-Cys]-Nle-Thr-Asp-NH2] (Ac-TAFCKR[Aib]NC[Nle]TD-NH2; disulfide 4-9)			Kd ([1]; PSMA SPR assay, category): 12.6 to 126 nM; IC50 ([2]; FACS binding, C4-2 cells, category): < 200 nM
CC(=O)N[C@H](C(=O)NC(C)(C)C(=O)N[C@@H](Cc1ccccc1)C(=O)N[C@H]1CSSC[C@@H](C(=O)N[C@H](C(=O)NCCC(N)=O)C(C)(C)C)NC(=O)[C@H](CC(N)=O)NC(=O)C(C)(C)NC(=O)[C@H](CCCNC(=N)N)NC(=O)[C@H](CCCCN)NC1=O)[C@@H](C)O [PSM-0426, Ac-Thr-Aib-Phe-[Cys-Lys-Arg-Aib-Asn-Cys]-Tle-Bal-NH2] (Ac-T[Aib]FCKR[Aib]NC[Tle][βAla]-NH2; disulfide 4-9)			Kd [1, 5]: < 12.6 nM; IC50 [2, 6]: < 200 nM
CC(=O)N[C@H](C(=O)NC(C)(C)C(=O)N[C@@H](Cc1ccc(Cl)cc1)C(=O)N[C@H]1CSSC[C@@H](C(=O)N[C@H](C(=O)N[C@H](C(=O)N[C@H](CCCCNC(=O)CC2CCN(C(=O)CN3CCN(CC(=O)O)CCN(CC(=O)O)CCN(CC(=O)O)CC3)CC2)C(N)=O)[C@@H](C)O)C(C)(C)C)NC(=O)[C@H](CC(N)=O)NC(=O)C(C)(C)NC(=O)[C@H](CCCNC(N)=O)NC(=O)[C@H](CCCCN)NC1=O)[C@@H](C)O [PSM-0322, Ac-Thr-Aib-Pcf-[Cys-Lys-Cit-Aib-Asn-Cys]-Tle-Thr-lys (DOTA-Cmp)-NH2] (Ac-T[Aib][Phe(4-Cl)]CK[Cit][Aib]NC[Tle]T[dK](Acetyl(1-DOTA-4-piperidyl))-NH2; disulfide 4-9)	12.6 to 126 nM	< 200 nM	
C[C@@H](O)[C@H](NC(=O)[C@@H](NC(=O)[C@@H]1CSSC[C@H](NC(=O)[C@H](Cc2cccnc2)NC(=O)C(C)(C)NC(=O)[C@@H](NC(=O)CC2CCN(C(=O)CN3CCN(CC(=O)O)CCN(CC(=O)O)CCN(CC(=O)O)CC3)CC2)[C@@H](C)O)C(=O)N[C@@H](CCCCN)C(=O)N[C@@H](CCCNC(N)=O)C(=O)NC(C)(C)C(=O)N[C@@H](CC(N)=O)C(=O)N1)C(C)(C)C)C(N)=O [PSM-0255, DOTA-Cmp-Thr-Aib-Mpa-[Cys-Lys-Cit-Aib-Asn-Cys]-Tle-Thr-NH2] ({DOTA}-[X1]T[Aib][3Pal]CK[Cit][Aib]NC[Tle]T-NH2; disulfide 5-10)			Kd [1, 7]: > 501 nM; IC50 [2, 8]: 1260 to 3160 nM
CC(=O)N[C@H](C(=O)NC(C)(C)C(=O)N[C@@H](Cc1ccccc1)C(=O)N[C@H]1CSSC[C@@H](C(=O)N[C@H](C(=O)N[C@@H](CCC(=O)O)C(N)=O)C(C)(C)C)NC(=O)[C@H](CC(N)=O)NC(=O)C(C)(C)NC(=O)[C@H](CCCNC(=N)N)NC(=O)[C@H](CCCCN)NC1=O)[C@@H](C)O [PSM-0262, Ac-Thr-Aib-Phe-[Cys-Lys-Arg-Aib-Asn-Cys]-Tle-Glu-NH2] (Ac-T[Aib]FCKR[Aib]NC[Tle]E-NH2; disulfide 4-9)			Kd [1, 7]: < 12.6 nM; IC50 [2, 8]: < 200 nM
CC(=O)N[C@H](C(=O)NC(C)(C)C(=O)N[C@@H](Cc1ccc(Cl)cc1)C(=O)N[C@H]1CSSC[C@@H](C(=O)N[C@H](C(=O)N[C@H](C(N)=O)[C@@H](C)O)C(C)(C)C)NC(=O)[C@H](CC(N)=O)NC(=O)C(C)(C)NC(=O)[C@H](CCCNC(=N)N)NC(=O)[C@H](CCCCN)NC1=O)[C@@H](C)O [PSM-0336, Ac-Thr-Aib-Pcf-[Cys-Lys-Arg-Aib-Asn-Cys]-Tle-Thr-NH2] (Ac-T[Aib][Phe(4-Cl)]CKR[Aib]NC[Tle]T-NH2; disulfide 4-9)	< 12.6 nM	< 200 nM	
C[C@@H](O)[C@H](NC(=O)[C@@H](NC(=O)[C@@H]1CSSC[C@H](NC(=O)[C@H](Cc2ccc(Cl)cc2)NC(=O)C(C)(C)NC(=O)[C@@H](NC(=O)CC2CCN(C(=O)CN3CCN(CC(=O)O)CCN(CC(=O)O)CCN(CC(=O)O)CC3)CC2)[C@@H](C)O)C(=O)N[C@@H](CCCCN)C(=O)N[C@@H](CCCNC(=N)N)C(=O)NC(C)(C)C(=O)N[C@@H](CC(N)=O)C(=O)N1)C(C)(C)C)C(N)=O [PSM-0445, DOTA-Cmp-Thr-Aib-Pcf-[Cys-Lys-Arg-Aib-Asn-Cys]-Tle-Thr-NH2] ({DOTA}-[X1]T[Aib][Phe(4-Cl)]CKR[Aib]NC[Tle]T-NH2; disulfide 5-10)			Kd [1, 5]: < 12.6 nM; IC50 [2, 6]: < 200 nM
C[C@@H](O)[C@H](NC(=O)[C@@H](NC(=O)[C@@H]1CSSC[C@H](NC(=O)[C@H](Cc2ccc(Cl)cc2)NC(=O)[C@@H](CCC(=O)O)NC(=O)[C@@H](NC(=O)CC2CCN(C(=O)CN3CCN(CC(=O)O)CCN(CC(=O)O)CCN(CC(=O)O)CC3)CC2)[C@@H](C)O)C(=O)N[C@@H](CCCCN)C(=O)N[C@@H](CCCNC(=N)N)C(=O)NC(C)(C)C(=O)N[C@@H](CC(N)=O)C(=O)N1)C(C)(C)C)C(N)=O [PSM-0343, DOTA-Cmp-Thr-glu-Pcf-[Cys-Lys-Arg-Aib-Asn-Cys]-Tle-Thr-NH2] ({DOTA}-[X1]T[dE][Phe(4-Cl)]CKR[Aib]NC[Tle]T-NH2; disulfide 5-10)	> 501 nM	> 3160 nM	
CC(=O)N[C@H](C(=O)NC(C)(C)C(=O)N[C@@H](Cc1ccccc1)C(=O)N[C@H]1CSSC[C@@H](C(=O)N[C@H](C(=O)O)C(C)(C)C)NC(=O)[C@H](CC(N)=O)NC(=O)C(C)(C)NC(=O)[C@H](CCCNC(=N)N)NC(=O)[C@H](CCCCN)NC1=O)[C@@H](C)O [PSM-0300, Ac-Thr-Aib-Phe-[Cys-Lys-Arg-Aib-Asn-Cys]-Tle-OH] (Ac-T[Aib]FCKR[Aib]NC[Tle]-OH; disulfide 4-9)	< 12.6 nM	< 200 nM	
